Reference: ChEMBL document CHEMBL1201861, “Genomics of Drug Sensitity in Cancer screening data, Wellcome Trust Sanger Institute”

Key:
PC-3 = assay: cells; format: functional, cell-based, Homo sapiens; details: Homo sapiens, PC-3;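 note: cell viability assay measuring growth inhibition of PC-3 cells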
Description: SANGER: Inhibition of human PC-3 cell growth in a cell viability assay.

Capan-2 = assay: cells; format: functional, cell-based, Homo sapiens; details: Homo sapiens, Capan-2;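 note: Capan-2 cell growth inhibition, read out with a viability assay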
Description: SANGER: Inhibition of human Capan-2 cell growth in a cell viability assay.

SUP-T1 = assay: cells; format: functional, cell-based, Homo sapiens; details: Homo sapiens, SUP-T1;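 note: growth inhibition of human SUP-T1 cells, read out as cell viability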
Description: SANGER: Inhibition of human SUP-T1 cell growth in a cell viability assay.

COLO-679 = assay: cells; format: functional, cell-based, Homo sapiens; details: Homo sapiens, COLO-679
Description: SANGER: Inhibition of human COLO-679 cell growth in a cell viability assay.

MKN-45 = assay: cells; format: functional, cell-based, Homo sapiens; details: Homo sapiens, MKN-45;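 note: growth inhibition of human MKN-45 cells, measured with a cell viability assay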
Description: SANGER: Inhibition of human MKN45 cell growth in a cell viability assay.

Raji = assay: cells; format: functional, cell-based, Homo sapiens; details: Homo sapiens, Raji;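 note: cell viability assay measuring inhibition of Raji cell growth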
Description: SANGER: Inhibition of human Raji cell growth in a cell viability assay.

KYSE-140 = assay: cells; format: functional, cell-based, Homo sapiens; details: Homo sapiens, KYSE-140;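 note: cell viability assay measuring growth inhibition in human KYSE-140 cells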
Description: SANGER: Inhibition of human KYSE-140 cell growth in a cell viability assay.

NCI-H2196 = assay: cells; format: functional, cell-based, Homo sapiens; details: Homo sapiens, NCI-H2196;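 note: cell viability assay used as the readout of growth inhibition in NCI-H2196 cells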
Description: SANGER: Inhibition of human NCI-H2196 cell growth in a cell viability assay.

NCI-H2171 = assay: cells; format: functional, cell-based, Homo sapiens; details: Homo sapiens, NCI-H2171;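 note: growth inhibition of human NCI-H2171 cells, read out by a cell viability assay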
Description: SANGER: Inhibition of human NCI-H2171 cell growth in a cell viability assay.

NCI-H1882 = assay: cells; format: functional, cell-based, Homo sapiens; details: Homo sapiens, NCI-H1882;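 note: growth inhibition of the cell line, determined with a viability assay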
Description: SANGER: Inhibition of human NCI-H1882 cell growth in a cell viability assay.

KYSE-410 = assay: cells; format: functional, cell-based, Homo sapiens; details: Homo sapiens, KYSE-410;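 note: growth inhibition of KYSE-410 cells, measured through a cell viability readout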
Description: SANGER: Inhibition of human KYSE-410 cell growth in a cell viability assay.

MeWo = assay: cells; format: functional, cell-based, Homo sapiens; details: Homo sapiens, MeWo;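 note: growth inhibition of MeWo cells, determined by a cell viability readout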
Description: SANGER: Inhibition of human Mewo cell growth in a cell viability assay.

GAMG = assay: cells; format: functional, cell-based, Homo sapiens; details: Homo sapiens, GAMG;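 note: cell growth inhibition measured by a viability assay in the GAMG human cell line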
Description: SANGER: Inhibition of human GAMG cell growth in a cell viability assay.

A204 = assay: cells; format: functional, cell-based, Homo sapiens; details: Homo sapiens, A204;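 note: growth inhibition of human A204 cells, read out with a cell viability assay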
Description: SANGER: Inhibition of human A204 cell growth in a cell viability assay.

MKN-7 = assay: cells; format: functional, cell-based, Homo sapiens; details: Homo sapiens, MKN-7;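 note: growth inhibition of MKN-7 cells, read out with a cell viability assay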
Description: SANGER: Inhibition of human MKN7 cell growth in a cell viability assay.

LOUCY = assay: cells; format: functional, cell-based, Homo sapiens; details: Homo sapiens, LOUCY;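 note: growth inhibition of human LOUCY cells, read out with a cell viability assay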
Description: SANGER: Inhibition of human LOUCY cell growth in a cell viability assay.

SW837 = assay: cells; format: functional, cell-based, Homo sapiens; details: Homo sapiens, SW837;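 note: growth inhibition of SW837 cells, determined with a cell viability assay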
Description: SANGER: Inhibition of human SW837 cell growth in a cell viability assay.

BC-3 = assay: cells; format: functional, cell-based, Homo sapiens; details: Homo sapiens, BC-3;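 note: cell viability assay measuring growth inhibition of human BC-3 cells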
Description: SANGER: Inhibition of human BC-3 cell growth in a cell viability assay.

BHY = assay: cells; format: functional, cell-based, Homo sapiens; details: Homo sapiens, BHY;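 note: cell growth inhibition read out by a viability assay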
Description: SANGER: Inhibition of human BHY cell growth in a cell viability assay.

SW13 = assay: cells; format: functional, cell-based, Homo sapiens; details: Homo sapiens, SW13;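 note: IC50 is inhibition of SW13 cell growth, read out with a cell viability assay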
Description: SANGER: Inhibition of human SW13 cell growth in a cell viability assay.

NCI-H748 = assay: cells; format: functional, cell-based, Homo sapiens; details: Homo sapiens, NCI-H748;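 note: growth inhibition of NCI-H748 cells, measured by a cell viability assay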
Description: SANGER: Inhibition of human NCI-H748 cell growth in a cell viability assay.

HCC1937 = assay: cells; format: functional, cell-based, Homo sapiens; details: Homo sapiens, HCC1937;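 note: growth inhibition measured with a cell viability read-out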
Description: SANGER: Inhibition of human HCC1937 cell growth in a cell viability assay.

MONO-MAC-6 = assay: cells; format: functional, cell-based, Homo sapiens; details: Homo sapiens, MONO-MAC-6;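 note: cell viability assay measuring growth inhibition of human MONO-MAC-6 cells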
Description: SANGER: Inhibition of human MONO-MAC-6 cell growth in a cell viability assay.

ME-180 = assay: cells; format: functional, cell-based, Homo sapiens; details: Homo sapiens, ME-180;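 note: cell viability assay measuring growth inhibition of ME-180 cells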
Description: SANGER: Inhibition of human ME-180 cell growth in a cell viability assay.

HCC1954 = assay: cells; format: functional, cell-based, Homo sapiens; details: Homo sapiens, HCC1954;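 note: growth inhibition of human HCC1954 cells, read out with a cell viability assay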
Description: SANGER: Inhibition of human HCC1954 cell growth in a cell viability assay.

JEG-3 = assay: cells; format: functional, cell-based, Homo sapiens; details: Homo sapiens, JEG-3;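 note: growth inhibition of human JEG-3 cells, read out with a cell viability assay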
Description: SANGER: Inhibition of human JEG-3 cell growth in a cell viability assay.

AN3-CA = assay: cells; format: functional, cell-based, Homo sapiens; details: Homo sapiens, AN3-CA;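 note: growth inhibition of human AN3-CA cells measured by a cell viability assay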
Description: SANGER: Inhibition of human AN3-CA cell growth in a cell viability assay.

T84 = assay: cells; format: functional, cell-based, Homo sapiens; details: Homo sapiens, T84;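 note: growth inhibition measured with a cell viability readout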
Description: SANGER: Inhibition of human T84 cell growth in a cell viability assay.

WM-115 = assay: cells; format: functional, cell-based, Homo sapiens; details: Homo sapiens, WM-115
Description: SANGER: Inhibition of human WM-115 cell growth in a cell viability assay.

KP-4 = assay: cells; format: functional, cell-based, Homo sapiens; details: Homo sapiens, KP-4;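 note: human KP-4 cells, with growth inhibition read out through a cell viability assay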
Description: SANGER: Inhibition of human KP-4 cell growth in a cell viability assay.

MDA-MB-175-VII = assay: cells; format: functional, cell-based, Homo sapiens; details: Homo sapiens, MDA-MB-175-VII
BL-41 = assay: cells; format: functional, cell-based, Homo sapiens; details: Homo sapiens, BL-41;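 note: growth inhibition of human BL-41 cells, read out with a cell viability assay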
Description: SANGER: Inhibition of human BL-41 cell growth in a cell viability assay.

NCI-H2342 = assay: cells; format: functional, cell-based, Homo sapiens; details: Homo sapiens, NCI-H2342;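 note: growth inhibition of the cancer cell line, determined with a cell viability assay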
Description: SANGER: Inhibition of human NCI-H2342 cell growth in a cell viability assay.

NUGC-3 = assay: cells; format: functional, cell-based, Homo sapiens; details: Homo sapiens, NUGC-3;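 note: growth inhibition of human NUGC-3 cells, read out with a cell viability assay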
Description: SANGER: Inhibition of human NUGC-3 cell growth in a cell viability assay.

DoTc2-4510 = assay: cells; format: functional, cell-based, Homo sapiens; details: Homo sapiens, DoTc2-4510
ST486 = assay: SANGER: Inhibition of human ST486 cell growth in a cell viability assay.; format: functional, cell-based; details: Homo sapiens, ST486
SF-295 = assay: cells; format: functional, cell-based, Homo sapiens; details: Homo sapiens, SF-295;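 note: growth inhibition of SF-295 cells, read out with a cell viability assay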
Description: SANGER: Inhibition of human SF295 cell growth in a cell viability assay.

NCI-H520 = assay: cells; format: functional, cell-based, Homo sapiens; details: Homo sapiens, NCI-H520;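 note: growth inhibition of NCI-H520 cells, measured by a cell viability assay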
Description: SANGER: Inhibition of human NCI-H520 cell growth in a cell viability assay.

ChaGo-K-1 = assay: cells; format: functional, cell-based, Homo sapiens; details: Homo sapiens, ChaGo-K-1;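 note: growth inhibition of ChaGo-K-1 cells, read out with a cell viability assay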
Description: SANGER: Inhibition of human ChaGo-K-1 cell growth in a cell viability assay.

OPM-2 = assay: cells; format: functional, cell-based, Homo sapiens; details: Homo sapiens, OPM-2;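 note: growth of OPM-2 cells measured with a viability assay, IC50 for suppression of proliferation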
Description: SANGER: Inhibition of human OPM-2 cell growth in a cell viability assay.

786-0 = assay: cells; format: functional, cell-based, Homo sapiens; details: Homo sapiens
Description: SANGER: Inhibition of human 786-0 cell growth in a cell viability assay.

KU-19-19 = assay: cells; format: functional, cell-based, Homo sapiens; details: Homo sapiens, KU-19-19
Description: SANGER: Inhibition of human KU-19-19 cell growth in a cell viability assay.

MDA-MB-361 = assay: cells; format: functional, cell-based, Homo sapiens; details: Homo sapiens, MDA-MB-361
G-401 = assay: cells; format: functional, cell-based, Homo sapiens; details: Homo sapiens, G-401
Description: SANGER: Inhibition of human G-401 cell growth in a cell viability assay.

RL = assay: cells; format: functional, cell-based, Homo sapiens; details: Homo sapiens, RL
Description: SANGER: Inhibition of human RL cell growth in a cell viability assay.

G-361 = assay: cells; format: functional, cell-based, Homo sapiens; details: Homo sapiens, G-361

Work on `Cc1cc([N+](=O)[O-])ccc1NS(=O)(=O)c1cc(Cl)ccc1Cl` yielded an IC50 (PC-3) of 8.12 µM, an IC50 (Capan-2) of 8.17 µM and an IC50 (SUP-T1) of 5.41 µM. The IC50 (COLO-679) was 2.4 µM, the IC50 (MKN-45) was 2.15 µM and the IC50 (Raji) was 6.44 µM. For the same molecule, the IC50 (KYSE-140) was 4.58 µM, the IC50 (NCI-H2196) was > 32 µM and the IC50 (NCI-H2171) was > 32 µM. For the same molecule, the IC50 (NCI-H1882) was > 32 µM, the IC50 (KYSE-410) was 5.83 µM and the IC50 (MeWo) was 28.6 µM. For the same molecule, the IC50 (GAMG) was 5.58 µM, the IC50 (A204) was 6.09 µM and the IC50 (MKN-7) was > 32 µM. For the same molecule, the IC50 (LOUCY) was 20 µM, the IC50 (SW837) was 4 µM and the IC50 (BC-3) was 8.38 µM. For the same molecule, the IC50 (BHY) was 4.5 µM, the IC50 (SW13) was 1.99 µM and the IC50 (NCI-H748) was > 32 µM. For the same molecule, the IC50 (HCC1937) was 6.27 µM, the IC50 (MONO-MAC-6) was 6.18 µM and the IC50 (ME-180) was 2.82 µM. The IC50 (HCC1954) was 3.62 µM, the IC50 (JEG-3) was 4.9 µM and the IC50 (AN3-CA) was 1.08 µM. The IC50 (T84) was 4.69 µM, the IC50 (WM-115) was > 32 µM and the IC50 (KP-4) was 1.66 µM. The IC50 (MDA-MB-175-VII) was 2.02 µM, the IC50 (BL-41) was > 32 µM and the IC50 (NCI-H2342) was 4.93 µM. It also gave an IC50 (NUGC-3) of 3.65 µM, an IC50 (DoTc2-4510) of 1.52 µM and an IC50 (ST486) of 4.83 µM. It also gave an IC50 (SF-295) of 2.34 µM, an IC50 (NCI-H520) of 6.2 µM and an IC50 (ChaGo-K-1) of 4.12 µM. For the same molecule, the IC50 (OPM-2) was > 32 µM, the IC50 (786-0) was 3.92 µM and the IC50 (KU-19-19) was > 32 µM. The IC50 (MDA-MB-361) was 3.66 µM, the IC50 (G-401) was 0.861 µM and the IC50 (RL) was > 32 µM. For the same molecule, the IC50 (G-361) was 1.77 µM.

In the case of `Oc1ccc2ccccc2c1SSc1c(O)ccc2ccccc12`, the IC50 (PC-3) is reported as > 32 µM, the IC50 (Capan-2) is reported as > 32 µM and the IC50 (SUP-T1) is reported as > 32 µM. For the same molecule, the IC50 (COLO-679) was 28.7 µM, the IC50 (MKN-45) was > 32 µM and the IC50 (Raji) was > 32 µM. The IC50 (KYSE-140) was > 32 µM, the IC50 (NCI-H2196) was > 32 µM and the IC50 (NCI-H2171) was > 32 µM. The IC50 (NCI-H1882) was > 32 µM, the IC50 (KYSE-410) was > 32 µM and the IC50 (MeWo) was > 32 µM. The IC50 (GAMG) was > 32 µM, the IC50 (A204) was > 32 µM and the IC50 (MKN-7) was > 32 µM. For the same molecule, the IC50 (LOUCY) was > 32 µM, the IC50 (SW837) was > 32 µM and the IC50 (BC-3) was > 32 µM. For the same molecule, the IC50 (BHY) was 24.5 µM, the IC50 (SW13) was > 32 µM and the IC50 (NCI-H748) was > 32 µM. For the same molecule, the IC50 (HCC1937) was > 32 µM, the IC50 (MONO-MAC-6) was > 32 µM and the IC50 (ME-180) was > 32 µM. The IC50 (HCC1954) was > 32 µM, the IC50 (JEG-3) was > 32 µM and the IC50 (AN3-CA) was 14.3 µM. For the same molecule, the IC50 (T84) was 12.2 µM, the IC50 (WM-115) was > 32 µM and the IC50 (KP-4) was > 32 µM. The IC50 (MDA-MB-175-VII) was > 32 µM, the IC50 (BL-41) was 3.1 µM and the IC50 (NCI-H2342) was > 32 µM. The IC50 (NUGC-3) was > 32 µM, the IC50 (DoTc2-4510) was 10.5 µM and the IC50 (ST486) was 4.87 µM. For the same molecule, the IC50 (SF-295) was > 32 µM, the IC50 (NCI-H520) was > 32 µM and the IC50 (ChaGo-K-1) was > 32 µM. The IC50 (OPM-2) was > 32 µM, the IC50 (786-0) was 3.32 µM and the IC50 (KU-19-19) was > 32 µM. The IC50 (MDA-MB-361) was > 32 µM, the IC50 (G-401) was 7.53 µM and the IC50 (RL) was > 32 µM. For the same molecule, the IC50 (G-361) was > 32 µM.
